Measurements published in patent US4327097A, “Novel penicillins” (Toyama Chemical Co., Ltd., priority 1974, dated 1982).
Converted amounts (≈) assume the structure as drawn.

How the values were obtained:
[1] = test system: Proteus morganii; assay: MIC against clinical isolates; format: cell-based; conditions: Table 6-5, clinical isolate; unit assumed
[2] = test system: Proteus vulgaris; assay: MIC against clinical isolates; format: cell-based; conditions: Table 6-5, clinical isolate; unit assumed
[3] = test system: Proteus rettgeri; assay: MIC against clinical isolates; format: cell-based; conditions: Table 6-5, clinical isolate; unit assumed
[4] = test system: Proteus mirabilis; assay: MIC against clinical isolates; format: cell-based; conditions: Table 6-5, clinical isolate; unit assumed
[5] = test system: Escherichia coli; assay: MIC against clinical isolates; format: cell-based; conditions: Table 6-2, clinical isolate; unit assumed
[6] = test system: Klebsiella pneumoniae; assay: MIC against clinical isolates; format: cell-based; conditions: Table 6-4, clinical isolate; unit assumed
[7] = test system: Staphylococcus aureus; assay: MIC against clinical isolates; format: cell-based; conditions: Table 6-1, clinical isolate; unit assumed
[8] = test system: Pseudomonas aeruginosa I.F.O.; assay: MIC, plate method, standard strains; format: cell-based; conditions: Table 4, standard strain; unit assumed
Procedure, shortened: (§1)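 Plates of Heart infusion agar (pH 7.4) containing compound dilutions; 10^4-cell inoculum, from 10^6 cells/ml; lowest concentration preventing growth reported.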

[9] = test system: Escherichia coli NIHJ; assay: MIC, plate method, standard strains; format: cell-based; conditions: Table 4, standard strain; unit assumed
Procedure, shortened: as §1

[10] = test system: Staphylococcus aureus 209p; assay: MIC, plate method, standard strains; format: cell-based; conditions: Table 4, standard strain; unit assumed
Procedure, shortened: as §1

[11] = test system: Proteus vulgaris 3027; assay: MIC, plate method, standard strains; format: cell-based; conditions: Table 4, standard strain; unit assumed
Procedure, shortened: as §1

[12] = test system: Klebsiella pneumoniae; assay: MIC, plate method, standard strains; format: cell-based; conditions: Table 4, standard strain; unit assumed
Procedure, shortened: as §1

[13] = biological target: T1, β-lactamase, Proteus vulgaris GN 76 (Proteus vulgaris, UniProt P52664); assay: Resistant activity against β-lactamase, iodometric assay; format: biochemical; conditions: control Cephalorizine = 100
T1 construct: By using the supernatant of enzyme fluid; endogenous in cells; host or cells: Proteus vulgaris GN 76 (penicillin G-induced cells, sonicated, 15,000 r.p.m. supernatant)
T1 sequence (P52664 30-300): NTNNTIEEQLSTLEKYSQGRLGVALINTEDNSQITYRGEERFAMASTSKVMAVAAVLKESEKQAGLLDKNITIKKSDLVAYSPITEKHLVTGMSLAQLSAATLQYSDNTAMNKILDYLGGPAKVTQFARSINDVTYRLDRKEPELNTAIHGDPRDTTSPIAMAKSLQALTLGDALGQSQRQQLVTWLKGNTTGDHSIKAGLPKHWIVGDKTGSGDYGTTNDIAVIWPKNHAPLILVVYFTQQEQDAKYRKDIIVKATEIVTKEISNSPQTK
Experimental: (§2) (4) Resistant activity of each cephalosporin compound against β-lactamase, Proteus vulgaris GN 76 and Escherichia freundii GN 346:
(§3) The resistant activity of each cephalosporin compound against β-lactamase was measured in the manner described below.
(§4) β-lactamase was prepared from Proteus vulgaris GN 76 and Escherichia freundii GN 346. 10 ml of an overnight culture in Heart Infusion broth was diluted with 100 ml of a medium containing 2 g of yeast extract, 10 g of polypeptone, 2 g of glucose, 7 g of disodium hydrogen phosphate, 2 g of potassium dihydrogen phosphate, 1.2 g of ammonium sulfate and 0.4 g of magnesium sulfate, per liter, and incubated with shaking at 37° C. After incubation of 2 hrs, Penicillin G (50 μg/ml) was added as the inducer, and further incubated for 2 hrs. The resulting cells were collected by centrifugation (5,000 r.p.m.×10 min.) and washed two times with 0.1 M phosphate buffer (pH 7.0). Subsequently, the cells were subjected to sonication (20 KHz, 5 min.) and then centrifuged at 15,000 r.p.m. for 60 min. By using the supernatant of enzyme fluid, the stability of each compound against β-lactamase was determined by the iodometric assay method. Each numeral shown in Table 7-2 is a relative activity value calculated by assuming as 100 the activity of the control Cephalorizine.

[14] = biological target: β-lactamase, Escherichia freundii GN 346 (Citrobacter freundii, UniProt Q46041); assay: as above; format: biochemical; conditions: control Cephalorizine = 100
β-lactamase, Escherichia freundii GN 346, sequence (Q46041 entry or part of it): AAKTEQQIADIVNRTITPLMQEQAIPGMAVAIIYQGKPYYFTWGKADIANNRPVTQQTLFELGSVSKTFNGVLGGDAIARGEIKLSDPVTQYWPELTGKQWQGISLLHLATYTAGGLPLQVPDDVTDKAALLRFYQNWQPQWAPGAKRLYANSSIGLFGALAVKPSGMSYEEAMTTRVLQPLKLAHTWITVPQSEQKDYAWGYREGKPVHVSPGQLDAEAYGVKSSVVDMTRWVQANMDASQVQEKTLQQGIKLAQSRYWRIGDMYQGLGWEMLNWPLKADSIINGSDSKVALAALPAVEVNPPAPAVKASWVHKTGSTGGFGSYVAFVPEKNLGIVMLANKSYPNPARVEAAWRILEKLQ
Experimental: as §2, §3, §4

[15] = test system: Pseudomonas aeruginosa; assay: MIC against clinical isolates; format: cell-based; conditions: unit assumed; for MIC Pseudomonas aeruginosa GN / MIC Pseudomonas aeruginosa GN4 / MIC Pseudomonas aeruginosa GN 82 / MIC Pseudomonas aeruginosa GN 221 / MIC Pseudomonas aeruginosa GN 376 / MIC Pseudomonas aeruginosa GN 1035 / MIC Pseudomonas aeruginosa GN 1091 / MIC Pseudomonas aeruginosa GN 2565: Table 6-3, clinical isolate; for MIC Pseudomonas aeruginosa GN: strain number not given; for MIC Pseudomonas aeruginosa S-1: Table 6-4, clinical isolate

SMILES: CCCCN1CCN(C(=O)NC(C(=O)NC2C(=O)N3C(C(=O)O)=C(CSc4nnnn4C)CSC23)c2ccccc2)C(=O)C1=O (single isomer, unassigned) [Compound No. 73]
- MIC Proteus morganii [1]: 0.78 µg/mL (≈ 1.19 µM)
- MIC Proteus vulgaris [2]: 0.78 µg/mL (≈ 1.19 µM)
- MIC Proteus rettgeri [3]: 3.13 µg/mL (≈ 4.76 µM)
- MIC Proteus mirabilis [4]: 0.39 µg/mL (≈ 0.593 µM)
- MIC Escherichia coli GN 3435 [5]: 0.78 µg/mL (≈ 1.19 µM)
- MIC Escherichia coli GN 3452 [5]: 0.78 µg/mL (≈ 1.19 µM)
- MIC Escherichia coli GN 3465 [5]: 1.56 µg/mL (≈ 2.37 µM)
- MIC Escherichia coli K-2 [5]: 1.56 µg/mL (≈ 2.37 µM)
- MIC Escherichia coli K-4 [5]: 0.78 µg/mL (≈ 1.19 µM)
- MIC Klebsiella pneumoniae GN 917 [6]: 0.78 µg/mL (≈ 1.19 µM)
- MIC Klebsiella pneumoniae GN 4081 [6]: 1.56 µg/mL (≈ 2.37 µM)
- MIC Staphylococcus aureus F-1 [7]: 1.56 µg/mL (≈ 2.37 µM)
- MIC Staphylococcus aureus MS 8588 [7]: 1.56 µg/mL (≈ 2.37 µM)
- MIC Staphylococcus aureus MS 8596 [7]: 3.13 µg/mL (≈ 4.76 µM)
- MIC Staphylococcus aureus MS 8619 [7]: 1.56 µg/mL (≈ 2.37 µM)
- MIC Staphylococcus aureus MS 8684 [7]: 1.56 µg/mL (≈ 2.37 µM)
- MIC Pseudomonas aeruginosa I.F.O. [8]: 25 µg/mL (≈ 38 µM)
- MIC Escherichia coli NIHJ [9]: < 0.1 µg/mL
- MIC Staphylococcus aureus 209p [10]: 1.57 µg/mL (≈ 2.39 µM)
- MIC Proteus vulgaris 3027 [11]: 1.57 µg/mL (≈ 2.39 µM)
- MIC Klebsiella pneumoniae [12]: 0.2 µg/mL (≈ 0.304 µM)
- Relative activity (%) against β-lactamase, Pr. vulgaris GN 76 [13]: 4%
- Relative activity (%) against β-lactamase, E. freundii GN 346 [14]: 0.1%
- MIC Pseudomonas aeruginosa GN [15]: 12.5 µg/mL (≈ 19 µM)
- MIC Pseudomonas aeruginosa GN4 [15]: 12.5 µg/mL (≈ 19 µM)
- MIC Pseudomonas aeruginosa GN 82 [15]: 12.5 µg/mL (≈ 19 µM)
- MIC Pseudomonas aeruginosa GN 221 [15]: 12.5 µg/mL (≈ 19 µM)
- MIC Pseudomonas aeruginosa GN 376 [15]: 12.5 µg/mL (≈ 19 µM)
- MIC Pseudomonas aeruginosa GN 1035 [15]: 50 µg/mL (≈ 76 µM)
- MIC Pseudomonas aeruginosa GN 1091 [15]: 12.5 µg/mL (≈ 19 µM)
- MIC Pseudomonas aeruginosa GN 2565 [15]: 25 µg/mL (≈ 38 µM)
- MIC Pseudomonas aeruginosa S-1 [15]: 50 µg/mL (≈ 76 µM)

SMILES: CCCCCCCCN1CCN(C(=O)N[C@@H](C(=O)NC2C(=O)N3C(C(=O)O)=C(CSc4nnnn4C)CSC23)c2ccccc2)C(=O)C1=O (single isomer, unassigned) [Compound No. 74]
- MIC Proteus morganii [1]: 0.78 µg/mL (≈ 1.09 µM)
- MIC Proteus vulgaris [2]: 0.78 µg/mL (≈ 1.09 µM)
- MIC Proteus rettgeri [3]: 6.25 µg/mL (≈ 8.76 µM)
- MIC Proteus mirabilis [4]: 0.39 µg/mL (≈ 0.546 µM)
- MIC Escherichia coli GN 3435 [5]: 0.78 µg/mL (≈ 1.09 µM)
- MIC Escherichia coli GN 3452 [5]: 1.56 µg/mL (≈ 2.19 µM)
- MIC Escherichia coli GN 3465 [5]: 1.56 µg/mL (≈ 2.19 µM)
- MIC Escherichia coli K-2 [5]: 3.13 µg/mL (≈ 4.38 µM)
- MIC Escherichia coli K-4 [5]: 1.56 µg/mL (≈ 2.19 µM)
- MIC Klebsiella pneumoniae GN 917 [6]: 1.56 µg/mL (≈ 2.19 µM)
- MIC Klebsiella pneumoniae GN 4081 [6]: 1.56 µg/mL (≈ 2.19 µM)
- MIC Staphylococcus aureus F-1 [7]: 0.78 µg/mL (≈ 1.09 µM)
- MIC Staphylococcus aureus MS 8588 [7]: 0.78 µg/mL (≈ 1.09 µM)
- MIC Staphylococcus aureus MS 8596 [7]: 0.78 µg/mL (≈ 1.09 µM)
- MIC Staphylococcus aureus MS 8619 [7]: 0.78 µg/mL (≈ 1.09 µM)
- MIC Staphylococcus aureus MS 8684 [7]: 0.78 µg/mL (≈ 1.09 µM)
- MIC Pseudomonas aeruginosa I.F.O. [8]: 12.5 µg/mL (≈ 17.5 µM)
- MIC Escherichia coli NIHJ [9]: 0.2 µg/mL (≈ 0.28 µM)
- MIC Staphylococcus aureus 209p [10]: 1.57 µg/mL (≈ 2.2 µM)
- MIC Proteus vulgaris 3027 [11]: 1.57 µg/mL (≈ 2.2 µM)
- MIC Klebsiella pneumoniae [12]: 0.79 µg/mL (≈ 1.11 µM)
- Relative activity (%) against β-lactamase, Pr. vulgaris GN 76 [13]: 5%
- Relative activity (%) against β-lactamase, E. freundii GN 346 [14]: 0.03%
- MIC Pseudomonas aeruginosa GN [15]: 25 µg/mL (≈ 35 µM)
- MIC Pseudomonas aeruginosa GN4 [15]: 50 µg/mL (≈ 70 µM)
- MIC Pseudomonas aeruginosa GN 82 [15]: 25 µg/mL (≈ 35 µM)
- MIC Pseudomonas aeruginosa GN 221 [15]: 50 µg/mL (≈ 70 µM)
- MIC Pseudomonas aeruginosa GN 376 [15]: 50 µg/mL (≈ 70 µM)
- MIC Pseudomonas aeruginosa GN 1035 [15]: 25 µg/mL (≈ 35 µM)
- MIC Pseudomonas aeruginosa GN 1091 [15]: 25 µg/mL (≈ 35 µM)
- MIC Pseudomonas aeruginosa GN 2565 [15]: 50 µg/mL (≈ 70 µM)
- MIC Pseudomonas aeruginosa S-1 [15]: 50 µg/mL (≈ 70 µM)

SMILES: CCN1CCN(C(=O)NC(C(=O)NC2C(=O)N3C(C(=O)O)=C(CSc4nnnn4CC)CSC23)c2ccccc2)C(=O)C1=O (single isomer, unassigned) [Compound No. 77]
- MIC Proteus morganii [1]: 1.56 µg/mL (≈ 2.42 µM)
- MIC Proteus vulgaris [2]: 0.78 µg/mL (≈ 1.21 µM)
- MIC Proteus rettgeri [3]: 1.56 µg/mL (≈ 2.42 µM)
- MIC Proteus mirabilis [4]: 1.56 µg/mL (≈ 2.42 µM)
- MIC Escherichia coli GN 3435 [5]: 1.56 µg/mL (≈ 2.42 µM)
- MIC Escherichia coli GN 3452 [5]: 1.56 µg/mL (≈ 2.42 µM)
- MIC Escherichia coli GN 3465 [5]: 6.25 µg/mL (≈ 9.71 µM)
- MIC Escherichia coli K-2 [5]: 3.13 µg/mL (≈ 4.86 µM)
- MIC Escherichia coli K-4 [5]: 1.56 µg/mL (≈ 2.42 µM)
- MIC Klebsiella pneumoniae GN 917 [6]: 1.56 µg/mL (≈ 2.42 µM)
- MIC Klebsiella pneumoniae GN 4081 [6]: 3.13 µg/mL (≈ 4.86 µM)
- MIC Staphylococcus aureus F-1 [7]: 1.56 µg/mL (≈ 2.42 µM)
- MIC Staphylococcus aureus MS 8588 [7]: 1.56 µg/mL (≈ 2.42 µM)
- MIC Staphylococcus aureus MS 8596 [7]: 1.56 µg/mL (≈ 2.42 µM)
- MIC Staphylococcus aureus MS 8619 [7]: 1.56 µg/mL (≈ 2.42 µM)
- MIC Staphylococcus aureus MS 8684 [7]: 1.56 µg/mL (≈ 2.42 µM)
- MIC Pseudomonas aeruginosa I.F.O. [8]: 25 µg/mL (≈ 38.8 µM)
- MIC Escherichia coli NIHJ [9]: < 0.1 µg/mL
- MIC Staphylococcus aureus 209p [10]: 1.57 µg/mL (≈ 2.44 µM)
- MIC Proteus vulgaris 3027 [11]: 1.57 µg/mL (≈ 2.44 µM)
- MIC Klebsiella pneumoniae [12]: 0.4 µg/mL (≈ 0.621 µM)
- MIC Pseudomonas aeruginosa GN [15]: 25 µg/mL (≈ 38.8 µM)
- MIC Pseudomonas aeruginosa GN4 [15]: 25 µg/mL (≈ 38.8 µM)
- MIC Pseudomonas aeruginosa GN 82 [15]: 25 µg/mL (≈ 38.8 µM)
- MIC Pseudomonas aeruginosa GN 221 [15]: 12.5 µg/mL (≈ 19.4 µM)
- MIC Pseudomonas aeruginosa GN 376 [15]: 25 µg/mL (≈ 38.8 µM)
- MIC Pseudomonas aeruginosa GN 1035 [15]: 50 µg/mL (≈ 77.7 µM)
- MIC Pseudomonas aeruginosa GN 1091 [15]: 25 µg/mL (≈ 38.8 µM)
- MIC Pseudomonas aeruginosa GN 2565 [15]: 50 µg/mL (≈ 77.7 µM)
- MIC Pseudomonas aeruginosa S-1 [15]: 50 µg/mL (≈ 77.7 µM)
